# Test results published in US12052991B2, “Substituted pyridinyloxybenzenes and salts thereof and use thereof as herbicidal agents” (Bayer Aktiengesellschaft, priority 2018, dated 2024).
# Legend:
# Type in all cases: in vivo
# [1] = test system: Echinochloa crus-galli (ECHCG); test: Herbicidal post-emergence action (Table B1); conditions: rated visually after about 3 weeks, 100% = plants have died, 0% = like control plants
# Summary of the method: (§1)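 Weeds grown from seed in sandy loam in the greenhouse were sprayed at the one-leaf stage, 2 to 3 weeks after sowing, with WP or EC formulations in water plus 0.5% additive at 600 L/ha. Rates corresponded to 1280 or 320 g/ha; damage was rated visually versus untreated controls after about 3 weeks.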
# Lolium rigidum (LOLRI) [2] = test: Herbicidal post-emergence action (Table B2); conditions: 1280 g/ha; rated visually after about 3 weeks; 100% = plants have died, 0% = like control plants
# Procedure: (§2) Seeds of mono- and dicotyledonous weed plants were placed in plastic pots in sandy loam soil (doubly sown with in each case one species of mono- or dicotyledonous weed plants per pot), covered with soil and cultivated in a greenhouse under controlled growth conditions. 2 to 3 weeks after sowing, the test plants were treated at the one-leaf stage. The compounds of the invention, formulated in the form of wettable powders (WP) or as emulsion concentrates (EC), were applied onto the green parts of the plants as aqueous suspension or emulsion with addition of 0.5% additive at a water application rate of 600 liters per hectare (converted). After the test plants had been kept in the greenhouse under optimum growth conditions for about 3 weeks, the activity of the preparations was rated visually in comparison to untreated controls. For example, 100% activity=the plants have died, 0% activity=like control plants. Tables B1 to B12 below show the effects of selected compounds of the general formula (I) according to Table 1 on various harmful plants and an application rate corresponding to 1280 or 320 g/ha, which were obtained by the experimental procedure mentioned above.
# Poa annua (POAAN) [3] = test: Herbicidal post-emergence action (Table B3); conditions: rated visually after about 3 weeks, 100% = plants have died, 0% = like control plants
# Summary of the method: as §1
# Setaria viridis (SETVI) [4] = test: Herbicidal post-emergence action (Table B4); conditions: 1280 g/ha; rated visually after about 3 weeks; 100% = plants have died, 0% = like control plants
# Procedure: as §2
# [5] = test system: Abutilon theophrasti (ABUTH); test: Herbicidal post-emergence action (Table B5); conditions: rated visually after about 3 weeks, 100% = plants have died, 0% = like control plants
# Summary of the method: as §1
# [6] = test system: Amaranthus retroflexus (AMARE); test: Herbicidal post-emergence action (Table B6); conditions: visual rating about 3 weeks after treatment, 100% = plants have died, 0% = like control plants
# Summary of the method: as §1
# Stellaria media (STEME) [7] = test: Herbicidal post-emergence action (Table B8); conditions: visual rating about 3 weeks after treatment, 100% = plants have died, 0% = like control plants
# Summary of the method: as §1
# [8] = test system: Alopecurus myosuroides (ALOMY); test: Herbicidal post-emergence action (Table B9); conditions: rated visually after about 3 weeks, 100% = plants have died, 0% = like control plants
# Summary of the method: as §1
# [9] = test system: Digitaria sanguinalis (DIGSA); test: Herbicidal post-emergence action (Table B10); conditions: visual rating about 3 weeks after treatment, 100% = plants have died, 0% = like control plants
# Summary of the method: as §1
# Bassia scoparia (KCHSC) [10] = test: Herbicidal post-emergence action (Table B11); conditions: visual rating about 3 weeks after treatment, 100% = plants have died, 0% = like control plants
# Summary of the method: as §1
# Veronica persica (VERPE) [11] = test: Herbicidal post-emergence action (Table B12); conditions: visual rating about 3 weeks after treatment, 100% = plants have died, 0% = like control plants
# Summary of the method: as §1
# [12] = test system: Echinochloa crus-galli (ECHCG); test: Herbicidal pre-emergence action, test C (Table C1); conditions: dosage 1280 g/ha; visual scoring after about 3 weeks; 100% = plants have died, 0% = like control plants
# Summary of the method: (§3)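 Sandy loam, doubly sown pots; surface spray pre-emergence; 1280 or 320 g/ha; 0.5% additive; 600 L/ha. Greenhouse, ~3 weeks. Visual % vs untreated.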
# Lolium rigidum (LOLRI) [13] = test: Herbicidal pre-emergence action, test C (Table C2); conditions: dosage 1280 g/ha; visual scoring after about 3 weeks; 100% = plants have died, 0% = like control plants
# Summary of the method: as §3
# Poa annua (POAAN) [14] = test: Herbicidal pre-emergence action, test C (Table C3); conditions: visual scoring after about 3 weeks, 100% = plants have died, 0% = like control plants
# Summary of the method: as §3
# Setaria viridis (SETVI) [15] = test: Herbicidal pre-emergence action, test C (Table C4); conditions: visual scoring after about 3 weeks, 100% = plants have died, 0% = like control plants
# Summary of the method: as §3
# [16] = test system: Abutilon theophrasti (ABUTH); test: Herbicidal pre-emergence action, test C (Table C5); conditions: visual scoring after about 3 weeks, 100% = plants have died, 0% = like control plants
# Summary of the method: as §3
# [17] = test system: Amaranthus retroflexus (AMARE); test: Herbicidal pre-emergence action, test C (Table C6); conditions: visual scoring after about 3 weeks, 100% = plants have died, 0% = like control plants
# Summary of the method: as §3
# [18] = test system: Matricaria inodora (MATIN); test: Herbicidal pre-emergence action, test C (Table C7); conditions: dosage 1280 g/ha; visual scoring after about 3 weeks; 100% = plants have died, 0% = like control plants
# Summary of the method: as §3
# Stellaria media (STEME) [19] = test: Herbicidal pre-emergence action, test C (Table C8); conditions: visual scoring after about 3 weeks, 100% = plants have died, 0% = like control plants
# Summary of the method: as §3
# [20] = test system: Alopecurus myosuroides (ALOMY); test: Herbicidal pre-emergence action, test C (Table C9); conditions: dosage 1280 g/ha; visual scoring after about 3 weeks; 100% = plants have died, 0% = like control plants
# Summary of the method: as §3
# [21] = test system: Digitaria sanguinalis (DIGSA); test: Herbicidal pre-emergence action, test C (Table C10); conditions: visual scoring after about 3 weeks, 100% = plants have died, 0% = like control plants
# Summary of the method: as §3
# Bassia scoparia (KCHSC) [22] = test: Herbicidal pre-emergence action, test C (Table C11); conditions: visual scoring vs untreated controls
# Text: Seeds of mono- and dicotyledonous weed plants were placed in plastic pots in sandy loam soil (doubly sown with one species each of mono- or dicotyledonous weed plants per pot) and covered with soil. The compounds of the invention, formulated in the form of wettable powders (WP) or as emulsion concentrates (EC), were then applied onto the surface of the covering soil as aqueous suspension or emulsion with addition of 0.5% additive at a water application rate of 600 liters per hectare (converted). After the treatment, the pots were placed in a greenhouse and kept under good growth conditions for the test plants. After about 3 weeks, the effect of the preparations was scored visually in comparison with untreated controls as percentages. For example, 100% activity=the plants have died, 0% activity=like control plants. Tables C1 to C12 below show the effects of selected compounds of the general formula (I) according to Table 1 on various harmful plants and an application rate corresponding to 1280 or 320 g/ha, which were obtained by the experimental procedure mentioned above.
# Veronica persica (VERPE) [23] = test: Herbicidal pre-emergence action, test C (Table C12); conditions: visual scoring vs untreated controls
# Summary of the method: as §3
# [24] = test system: harmful plants ABUTH, AMARE, ECHCG, LOLRI, MATIN, POAAN, SETVI, STEME, ALOMY, DIGSA, KCHSC and VERPE; test: Herbicidal post-emergence action, summary of Tables B1-B12; conditions: application rate of 1280 or 320 g of active ingredient per hectare; summary in words
# Summary of the method: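 Greenhouse weeds in sandy loam treated post-emergence at the one-leaf stage, 2–3 weeks after sowing, with WP or EC formulations sprayed with 0.5% additive at 600 L/ha water, 1280 or 320 g/ha. Damage rated visually after about 3 weeks versus untreated controls (0% = like control, 100% = dead).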
# [25] = test system: harmful plants ABUTH, AMARE, ECHCG, LOLRI, MATIN, POAAN, SETVI, STEME, ALOMY, DIGSA, KCHSC and VERPE; test: Herbicidal pre-emergence action (test C), summary of Tables C1-C12; conditions: application rate of 1280 or 320 g of active ingredient per hectare; summary in words
# Summary of the method: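 Pre-emergence pot test in sandy loam: WP or EC formulations were sprayed onto the covering soil with 0.5% additive at 600 L/ha water, at 1280 or 320 g/ha. Plants were kept in the greenhouse, and activity was rated visually about 3 weeks later as % versus untreated controls (100% = dead).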
structure (smiles),measurement,setting,value
Fc1ccc(Oc2ncc(Cl)cc2F)c(-c2cc(C(F)F)on2)c1 [Example 1-31],Post-emergence action against Echinochloa crus-galli (ECHCG),[1]; 320 g/ha,90%
same,Post-emergence action against Echinochloa crus-galli (ECHCG),[1]; 1280 g/ha,100%
same,Post-emergence action against Lolium rigidum (LOLRI),Lolium rigidum (LOLRI) [2],90%
same,Post-emergence action against Poa annua (POAAN),Poa annua (POAAN) [3]; 320 g/ha,100%
same,Post-emergence action against Poa annua (POAAN),Poa annua (POAAN) [3]; 1280 g/ha,100%
same,Post-emergence action against Setaria viridis (SETVI),Setaria viridis (SETVI) [4],100%
same,Post-emergence action against Abutilon theophrasti (ABUTH),[5]; 320 g/ha,90%
same,Post-emergence action against Abutilon theophrasti (ABUTH),[5]; 1280 g/ha,100%
same,Post-emergence action against Amaranthus retroflexus (AMARE),[6]; dosage 320 g/ha,100%
same,Post-emergence action against Amaranthus retroflexus (AMARE),[6]; dosage 1280 g/ha,100%
same,Post-emergence action against Stellaria media (STEME),Stellaria media (STEME) [7]; dosage 320 g/ha,100%
same,Post-emergence action against Stellaria media (STEME),Stellaria media (STEME) [7]; dosage 1280 g/ha,100%
same,Post-emergence action against Alopecurus myosuroides (ALOMY),[8]; 320 g/ha,100%
same,Post-emergence action against Alopecurus myosuroides (ALOMY),[8]; 1280 g/ha,100%
same,Post-emergence action against Digitaria sanguinalis (DIGSA),[9]; dosage 320 g/ha,90%
same,Post-emergence action against Digitaria sanguinalis (DIGSA),[9]; dosage 1280 g/ha,100%
same,Post-emergence action against Bassia scoparia (KCHSC),Bassia scoparia (KCHSC) [10]; dosage 320 g/ha,90%
same,Post-emergence action against Bassia scoparia (KCHSC),Bassia scoparia (KCHSC) [10]; dosage 1280 g/ha,100%
same,Post-emergence action against Veronica persica (VERPE),Veronica persica (VERPE) [11]; dosage 320 g/ha,100%
same,Post-emergence action against Veronica persica (VERPE),Veronica persica (VERPE) [11]; dosage 1280 g/ha,100%
same,Pre-emergence action against Echinochloa crus-galli (ECHCG),[12],100%
same,Pre-emergence action against Lolium rigidum (LOLRI),Lolium rigidum (LOLRI) [13],100%
same,Pre-emergence action against Poa annua (POAAN),Poa annua (POAAN) [14]; dosage 320 g/ha,90%
same,Pre-emergence action against Poa annua (POAAN),Poa annua (POAAN) [14]; dosage 1280 g/ha,100%
same,Pre-emergence action against Setaria viridis (SETVI),Setaria viridis (SETVI) [15]; dosage 320 g/ha,100%
same,Pre-emergence action against Setaria viridis (SETVI),Setaria viridis (SETVI) [15]; dosage 1280 g/ha,100%
same,Pre-emergence action against Abutilon theophrasti (ABUTH),[16]; dosage 320 g/ha,90%
same,Pre-emergence action against Abutilon theophrasti (ABUTH),[16]; dosage 1280 g/ha,100%
same,Pre-emergence action against Amaranthus retroflexus (AMARE),[17]; dosage 320 g/ha,100%
same,Pre-emergence action against Amaranthus retroflexus (AMARE),[17]; dosage 1280 g/ha,100%
same,Pre-emergence action against Matricaria inodora (MATIN),[18],90%
same,Pre-emergence action against Stellaria media (STEME),Stellaria media (STEME) [19]; dosage 320 g/ha,100%
same,Pre-emergence action against Stellaria media (STEME),Stellaria media (STEME) [19]; dosage 1280 g/ha,100%
same,Pre-emergence action against Alopecurus myosuroides (ALOMY),[20],100%
same,Pre-emergence action against Digitaria sanguinalis (DIGSA),[21]; dosage 320 g/ha,90%
same,Pre-emergence action against Digitaria sanguinalis (DIGSA),[21]; dosage 1280 g/ha,100%
same,Pre-emergence action against Bassia scoparia (KCHSC),Bassia scoparia (KCHSC) [22]; dosage 320 g/ha,90%
same,Pre-emergence action against Bassia scoparia (KCHSC),Bassia scoparia (KCHSC) [22]; dosage 1280 g/ha,100%
same,Pre-emergence action against Veronica persica (VERPE),Veronica persica (VERPE) [23]; dosage 320 g/ha,100%
same,Pre-emergence action against Veronica persica (VERPE),Veronica persica (VERPE) [23]; dosage 1280 g/ha,100%
same,herbicidal activity against the harmful plants of Tables B1-B12 in post-emergence treatment,[24],very good herbicidal activity
same,herbicidal activity against the harmful plants of Tables C1-C12 in pre-emergence treatment,[25],very good herbicidal activity
